Assay results reported in patent publication US20090239926A1, “METHODS FOR THE TREATMENT OF PSORIASIS OR PSORIATIC ARTHRITIS USING CYCLOPROPYL-N-CARBOXAMIDE” (priority 2008, published 2009).
Values joined by “and” are separate entries in the source; they are usually repeats but may differ in a detail not shown here. Equal entries are not always repeated.

What was measured:
[1] = biological target: T1, PDE6 from bovine retinal rod outer segments (Bos taurus, UniProt P11541+P23439); test: Specificity: PDE6; format: biochemical
T1 construct: PDE6 from bovine retinal rod outer segments; from tissue; host or cells: bovine retinal rod outer segments
Procedure: (§1) The specificity of Compound A for PDE4 was assessed by testing at a single concentration (10 μM) against bovine PDE1, human PDE2, PDE3 and PDE5 from human platelets, and PDE6 from bovine retinal rod outer segments.

[2] = tested on: collagen-induced arthritis in male DBA/1 mice; test: Type II collagen-induced mice arthritis model; format: in vivo; details: 25 mg/kg orally once a day for 10 days
Procedure: Collagen-Induced Arthritis Animal Model: Type II collagen purified from the cartilage of a young calf was dissolved at 4 mg/ml in 0.1M acetic acid and emulsified with an equal volume of complete Freund's adjuvant (CFA). DBA/1 mice (8-12 weeks of age) were then immunized at two sites at the base of the tail on Day 1 with 100 μl of the emulsion.
Treatment regime and measurement of clinical score: 14 animals per test group were treated orally once a day for 10 days (Days 1-10) with vehicle (0.5% carboxymethyl-cellulose/0.25% Tween 80), or Compound A suspended in vehicle at 5 mg/kg or 25mg/kg. The experiment was terminated on Day 10. Mice were monitored daily for signs of arthritis and scored using an established clinical scoring system, where: 0=normal, 1=slight swelling and/or erythema, and 2=pronounced edematous swelling. Each limb was graded, giving a maximum score of 8 per mouse. In addition, paw-swelling was measured using calipers.
Histology: At the end of the experiment, paws from treated mice were fixed in formal saline, decalcified and embedded in wax, sectioned and stained with hematoxylin and eosin. […]

bovine PDE1 = test: Specificity: PDE1; format: biochemical; details: at 10 μM
Procedure: as §1

[3] = tested on: LPS-stimulated human PBMC TNF-α production; test: LPS-induced TNF-α production in human PBMC; format: cell-based; details: LPS 100 ng/ml, 18-20 hours
Procedure: LPS-induced TNF-α production in Human PBMC: Human peripheral blood mononuclear cells (PBMC) (2×10^5 cells) were plated in 96-well flat-bottom Costar tissue culture plates (Corning, N.Y., USA) in triplicate. Compound A was dissolved in DMSO (Sigma) and further dilutions were done in culture medium immediately before use. The final DMSO concentration in all samples was 0.25%. Various concentration of Compound A was added to cells one hour before stimulation. Cells were stimulated with LPS (Sigma, St. Louis, Mo., USA) at 100 ng/ml, in the absence or presence of Compound A. Cells were incubated for 18-20 hours at 37 in 5% CO2 and supernatants were then collected, diluted with culture medium and assayed for TNF-α levels by ELISA (Endogen, Boston, Mass., USA) (Muller, G. W., et al., J Med Chem, 1996. 39(17): 3238-40).

[4] = biological target: T2, PDE3 from human platelets (Homo sapiens, UniProt Q14432); test: Specificity: PDE3; format: biochemical
T2 construct: PDE3 and PDE5 from human platelets; from tissue; host or cells: human platelets
Procedure: as §1

T2 sequence (Q14432 whole entry): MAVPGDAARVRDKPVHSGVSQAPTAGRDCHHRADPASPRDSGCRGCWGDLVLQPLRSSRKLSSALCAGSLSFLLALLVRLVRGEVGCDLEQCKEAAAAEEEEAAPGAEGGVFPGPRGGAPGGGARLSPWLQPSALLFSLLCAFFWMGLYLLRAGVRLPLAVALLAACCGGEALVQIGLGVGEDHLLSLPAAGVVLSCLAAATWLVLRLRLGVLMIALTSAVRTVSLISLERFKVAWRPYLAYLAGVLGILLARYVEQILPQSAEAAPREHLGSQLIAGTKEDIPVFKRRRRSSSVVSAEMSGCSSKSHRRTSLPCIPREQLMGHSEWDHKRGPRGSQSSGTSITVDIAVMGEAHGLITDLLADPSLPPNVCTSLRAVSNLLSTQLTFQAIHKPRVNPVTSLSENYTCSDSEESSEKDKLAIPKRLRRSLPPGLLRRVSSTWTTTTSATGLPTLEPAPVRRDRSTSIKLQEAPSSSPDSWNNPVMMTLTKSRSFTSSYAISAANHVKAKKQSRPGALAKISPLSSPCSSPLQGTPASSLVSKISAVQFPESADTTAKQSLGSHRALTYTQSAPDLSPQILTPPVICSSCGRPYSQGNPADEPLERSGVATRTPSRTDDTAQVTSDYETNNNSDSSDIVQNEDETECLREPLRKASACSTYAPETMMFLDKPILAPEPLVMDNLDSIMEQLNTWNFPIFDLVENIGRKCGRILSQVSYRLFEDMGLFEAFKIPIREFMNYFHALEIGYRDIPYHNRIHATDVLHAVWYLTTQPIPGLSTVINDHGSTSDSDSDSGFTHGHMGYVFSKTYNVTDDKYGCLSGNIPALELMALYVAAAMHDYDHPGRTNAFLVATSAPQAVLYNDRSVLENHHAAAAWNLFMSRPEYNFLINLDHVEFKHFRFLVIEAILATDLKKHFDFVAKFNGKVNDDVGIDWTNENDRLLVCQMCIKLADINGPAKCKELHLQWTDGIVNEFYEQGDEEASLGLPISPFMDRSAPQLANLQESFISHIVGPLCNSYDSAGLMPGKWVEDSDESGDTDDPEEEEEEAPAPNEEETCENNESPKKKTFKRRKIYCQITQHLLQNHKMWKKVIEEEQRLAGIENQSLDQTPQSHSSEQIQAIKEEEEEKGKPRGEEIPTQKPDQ
T1 sequence (P11541 2-856 limits assumed): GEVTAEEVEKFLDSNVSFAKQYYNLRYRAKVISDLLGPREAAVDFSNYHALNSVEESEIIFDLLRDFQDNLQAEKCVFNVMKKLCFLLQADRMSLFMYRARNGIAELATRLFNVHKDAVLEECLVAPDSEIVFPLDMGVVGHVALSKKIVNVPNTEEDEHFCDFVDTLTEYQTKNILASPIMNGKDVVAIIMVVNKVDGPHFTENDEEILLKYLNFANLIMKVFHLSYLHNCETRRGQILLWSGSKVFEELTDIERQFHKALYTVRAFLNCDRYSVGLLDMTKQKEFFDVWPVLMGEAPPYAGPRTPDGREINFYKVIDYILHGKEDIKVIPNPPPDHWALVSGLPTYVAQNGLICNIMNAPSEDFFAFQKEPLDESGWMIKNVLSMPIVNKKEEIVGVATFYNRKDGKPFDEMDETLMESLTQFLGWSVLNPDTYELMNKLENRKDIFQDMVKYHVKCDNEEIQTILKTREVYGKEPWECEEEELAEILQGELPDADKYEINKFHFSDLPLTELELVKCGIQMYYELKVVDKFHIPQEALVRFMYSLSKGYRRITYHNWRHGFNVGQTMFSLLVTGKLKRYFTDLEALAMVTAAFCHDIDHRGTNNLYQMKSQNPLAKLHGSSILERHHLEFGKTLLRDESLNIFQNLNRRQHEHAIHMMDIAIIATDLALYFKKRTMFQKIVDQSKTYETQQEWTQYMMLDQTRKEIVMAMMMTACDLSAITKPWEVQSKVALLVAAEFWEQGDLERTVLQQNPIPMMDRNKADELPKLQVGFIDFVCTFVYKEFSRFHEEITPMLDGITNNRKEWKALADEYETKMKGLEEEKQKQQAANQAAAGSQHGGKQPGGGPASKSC
T1 sequence (P23439 2-850 limits assumed): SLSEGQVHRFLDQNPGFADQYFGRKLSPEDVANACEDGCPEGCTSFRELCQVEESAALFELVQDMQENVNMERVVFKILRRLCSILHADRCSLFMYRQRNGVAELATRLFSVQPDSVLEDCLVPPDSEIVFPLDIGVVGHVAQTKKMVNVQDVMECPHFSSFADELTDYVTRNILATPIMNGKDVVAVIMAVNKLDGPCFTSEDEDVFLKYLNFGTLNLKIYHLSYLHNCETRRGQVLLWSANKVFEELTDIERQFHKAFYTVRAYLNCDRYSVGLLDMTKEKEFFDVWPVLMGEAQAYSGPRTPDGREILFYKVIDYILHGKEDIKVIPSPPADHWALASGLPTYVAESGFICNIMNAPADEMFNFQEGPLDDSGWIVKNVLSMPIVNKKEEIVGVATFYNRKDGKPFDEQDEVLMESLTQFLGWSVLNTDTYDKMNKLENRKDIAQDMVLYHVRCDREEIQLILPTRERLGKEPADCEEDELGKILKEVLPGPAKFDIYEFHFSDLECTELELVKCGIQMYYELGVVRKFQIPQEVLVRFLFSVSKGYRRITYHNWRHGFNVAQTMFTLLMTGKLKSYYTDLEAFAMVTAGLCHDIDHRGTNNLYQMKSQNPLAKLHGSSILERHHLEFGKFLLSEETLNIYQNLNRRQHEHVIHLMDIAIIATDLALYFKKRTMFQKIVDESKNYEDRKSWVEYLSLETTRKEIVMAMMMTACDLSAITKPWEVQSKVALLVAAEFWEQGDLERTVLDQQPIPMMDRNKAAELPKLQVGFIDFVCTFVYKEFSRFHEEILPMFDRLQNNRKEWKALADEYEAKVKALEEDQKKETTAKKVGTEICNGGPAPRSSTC

In the case of `CCOc1cc([C@@H](CS(C)(=O)=O)N2Cc3cccc(NC(=O)C4CC4)c3C2=O)ccc1OC` [Compound A, cyclopropyl-N-{2-[(1S)-1-(3-ethoxy-4-methoxyphenyl)-2-(methylsulfonyl)ethyl]-3-oxoisoindoline-4-yl}carboxamide], the inhibition at 10 µM [1] is reported as 17%, the “clinical severity of arthritis (clinical score)” value ([2]; FIG. 3) is reported as “effective in reducing the clinical severity of arthritis” and the “histological severity of arthritis” value ([2]; P<0.05, FIG. 4) is reported as “reduced the histological severity of arthritis”. For the same molecule, the PDE1 % inhibition (bovine PDE1) was 30%, the IC50 [3] was 51 nM and 0.024 µg/mL and the inhibition at 10 µM [4] was 9%.
